pIC50: −log10 of the molar value. Structures can show the parent of a compound that is named as a salt.
What was measured:
[1] = Microsomal stability assay, human liver microsomes; type: in vitro ADME; conditions: pH 7.4, 1 μM compound, 0.5 mg/mL protein, 37° C., read-out: HLM +/− NADPH: Clint (μL/min/mg protein)
Experimental: (§1) Microsomal stability assay is a widely used in vitro model to characterize the metabolic conversion by phase I enzymes, such as cytochrome P450 (CYP) enzymes. Since metabolism is known to be highly variable in different species, microsomal stability assay is commonly run in multiple species. Metabolic stability of testing compound can be evaluated using human, rat, mouse, or other animal liver or intestine microsomes to predict intrinsic clearance.
(§2) The assay was carried out in 96-well microtiter plates at 37° C. Reaction mixtures (25 μL) contained a final concentration of 1 μM test compound, 0.5 mg/mL liver microsomes protein, and 1 mM NADPH and/or 1 mM UDPGA (with alamethicin) in 100 mM potassium phosphate, pH 7.4 buffer with 3 mM MgCl2. The incubation was done with N=1, but duplicate incubation at each time point can be prepared if necessary. At each of the time points (for example, 0, 15, 30, and 60 minutes), 150 μL of quench solution (100% acetonitrile with 0.1% formic acid) with internal standard was transferred to each well. Besides the zero minute controls, mixtures containing the same components except the NADPH can also be prepared as the negative control. Verapamil was included as a positive control to verify assay performance. Plates were sealed, vortexed, and centrifuged at 4° C. for 15 minutes at 4000 rpm. The supernatant is transferred to fresh plates for LC/MS/MS analysis.
(§3) Summarized conditions: [Compound]=[…], [LM]=0.5 mg/mL, [NADPH]=1 mM and/or [UDPGA]=1 mM, Buffer=100 mM Potassium Phosphate, pH 7.4 with 3 mM MgCl2, Time=0, 15, 30, and 60 min, and Temperature=37° C.
(§4) All samples were analyzed on LC/MS/MS using an AB Sciex API 4000 instrument, coupled to a Shimadzu LC-20AD LC Pump system. Analytical samples were separated using a Waters Atlantis T3 dC18 reverse phase HPLC column (20 mm×2.1 mm) at a flow rate of 0.5 mL/min. The mobile phase consisted of 0.1% formic acid in water (solvent A) and 0.1% formic acid in 100% acetonitrile (solvent B).
(§5) The extent of metabolism is calculated as the disappearance of the test compound, compared to the 0-min time incubation. Initial rates are calculated for the compound concentration and used to determine half-life (t½) values and subsequently, the intrinsic clearance (Clint). Clint=(0.693)(1/t½ (min))(g of liver/kg of body weight)(mL incubation/mg of microsomal protein)(45 mg of microsomal protein/g of liver weight)

[2] = Microsomal stability assay, mouse liver microsomes; type: in vitro ADME; conditions: mouse, liver microsomes, pH 7.4, mouse liver microsomes, 1 μM compound, 0.5 mg/mL protein, 37° C.; read-out: MLM +30/− NADPH: Clint (μL/min/mg protein)
Experimental: as §1, §2, §3, §4, §5

androgen receptor (AR) = molecular target: T1, androgen receptor (AR) (Homo sapiens, UniProt P10275, T878A); assay: Androgen-induced PSA (6.1 kb)-luciferase reporter assay in LNCaP cells; type: cell-based; conditions: LNCaP cells transfected with PSA (6.1 kb)-luciferase reporter, R1881 1 nM, 24 h; read-out: PSA-Luc IC50 Range
T1 construct: LNCaP cells were transiently transfected with the PSA (6.1 kb)-luciferase reporter for 24 h; endogenous in cells; host or cells: LNCaP
T1 sequence (P10275 1-920 T878A): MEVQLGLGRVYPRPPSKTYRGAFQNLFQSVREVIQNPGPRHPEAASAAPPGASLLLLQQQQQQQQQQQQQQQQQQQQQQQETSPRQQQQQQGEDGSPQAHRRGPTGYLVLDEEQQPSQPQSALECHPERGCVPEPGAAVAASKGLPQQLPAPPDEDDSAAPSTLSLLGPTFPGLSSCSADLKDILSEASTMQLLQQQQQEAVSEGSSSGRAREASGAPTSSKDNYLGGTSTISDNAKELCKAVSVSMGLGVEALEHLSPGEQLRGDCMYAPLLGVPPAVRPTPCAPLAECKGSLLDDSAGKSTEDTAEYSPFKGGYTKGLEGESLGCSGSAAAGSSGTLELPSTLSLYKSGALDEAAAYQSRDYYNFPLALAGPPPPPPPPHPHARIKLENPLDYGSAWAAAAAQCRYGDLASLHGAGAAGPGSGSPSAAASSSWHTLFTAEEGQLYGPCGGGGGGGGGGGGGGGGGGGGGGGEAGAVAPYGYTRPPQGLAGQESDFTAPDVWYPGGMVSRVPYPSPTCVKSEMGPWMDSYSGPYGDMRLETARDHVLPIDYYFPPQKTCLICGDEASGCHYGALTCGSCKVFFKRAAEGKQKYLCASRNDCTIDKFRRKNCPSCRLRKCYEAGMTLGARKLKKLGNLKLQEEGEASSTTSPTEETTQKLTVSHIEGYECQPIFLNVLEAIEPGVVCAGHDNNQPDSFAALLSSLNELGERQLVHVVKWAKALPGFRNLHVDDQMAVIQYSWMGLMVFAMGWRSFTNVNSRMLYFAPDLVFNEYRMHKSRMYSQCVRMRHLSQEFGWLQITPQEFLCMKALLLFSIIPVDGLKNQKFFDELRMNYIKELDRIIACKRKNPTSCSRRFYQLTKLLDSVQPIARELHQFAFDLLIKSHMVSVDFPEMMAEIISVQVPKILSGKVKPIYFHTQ
Experimental: The PSA (6.1 kb)-luciferase reporter contains functional AREs (androgen response elements) to which AR binds in response to androgen to induce luciferase activity.
Cells were lysed using Passive Lysis Buffer (Promega) and then collected into V-bottom 96-well tissue culture plates. Lysates were centrifuged at 4° C. for 5 minutes at 3000 rpm. To measure luminescence of LNCaP cell lysates the Firefly Luciferase Assay System (Promega) was employed, according to manufacturer's protocol. Relative luminescence units (RLU) in cell lysates were detected for 10 seconds using Promega GloMax-Multi Detection Luminometer (Promega). Values were normalized to protein content. GraphPad Prism graphing software was used to calculate IC50 values.
Comparisons between treatment and control groups were compared using Two-Way ANOVA with post-hoc Dunnett's and Tukey's tests. Differences were considered statistically significant at P values less than 0.05.

SMILES | microsomal CLint at 1 μM [1] | microsomal CLint at 1 μM [2] | pIC50 (androgen receptor (AR))
CC(C)(c1ccc(OCc2nccc(NS(C)(=O)=O)n2)cc1)c1cc(Cl)c(OCCCl)c(Cl)c1 [Compound A42] | < 12 µL/min/mg | < 12 µL/min/mg | 5.70 to 6.30
CC(C)(c1ccc(NCc2ocnc2S(C)(=O)=O)cc1)c1cc(Cl)c(OCCCl)c(Cl)c1 [Compound A32, 4-(2-(3,5-dichloro-4-(2-chloroethoxy)phenyl)propan-2-yl)-N-((4-(methylsulfonyl)oxazol-5-yl)methyl)aniline Hydrochloride] | 12 to 48 µL/min/mg | ≥ 48 µL/min/mg | < 5.70
CC(C)(c1cc(Cl)c(OCCCl)c(Cl)c1)c1ccc(OCc2ocnc2S(C)(=O)=O)c(C#N)c1 [Compound A30] | 12 to 48 µL/min/mg | 12 to 48 µL/min/mg | 5.70 to 6.30
CC(C)(c1ccc(OCc2ocnc2C#N)cc1)c1cc(Cl)c(OCCCl)c(Cl)c1 [Compound A65] | 12 to 48 µL/min/mg | 12 to 48 µL/min/mg | 5.70 to 6.30
CC(C)(c1cnc(NCc2ocnc2S(C)(=O)=O)nc1)c1cc(Cl)c(OCCCl)c(Cl)c1 [Compound A27] | < 12 µL/min/mg | ≥ 48 µL/min/mg | < 5.70
CC(C)(c1ccc(NC(=O)c2coc(NS(C)(=O)=O)n2)cc1)c1cc(Cl)c(OCCCl)c(Cl)c1 [Compound A49, N-(4-(2-(3,5-Dichloro-4-(2-chloroethoxy)phenyl)propan-2-yl)phenyl)-2-(methylsulfonamido)oxazole-4-carboxamide] | 12 to 48 µL/min/mg | < 12 µL/min/mg | < 5.70
CC(C)(c1ccc(OCc2cnc(S(C)(=O)=O)o2)cc1)c1cc(Cl)c(OCCCl)c(Cl)c1 [Compound A57] | 12 to 48 µL/min/mg | ≥ 48 µL/min/mg | > 6.30
Cc1nc(S(C)(=O)=O)c(COc2ccc(C(C)(C)c3cc(Cl)c(OCCCl)c(Cl)c3)cc2)o1 [Compound A34] | < 12 µL/min/mg | 12 to 48 µL/min/mg | 5.70 to 6.30
CC(C)(c1ccc(OCc2ocnc2C(N)=O)cc1)c1cc(Cl)c(OCCCl)c(Cl)c1 [Compound A45] | < 12 µL/min/mg | < 12 µL/min/mg | 5.70 to 6.30
CC(C)(c1ccc(OCc2ocnc2S(C)(=O)=O)cc1)c1cc(Cl)c(OCCCCl)c(Cl)c1 [Compound A3, 5-[[4-[1-[3,5-dichloro-4-(3-chloropropoxy)phenyl]-1-methyl-ethyl]phenoxy]methyl]-4-methylsulfonyl-oxazole] | < 12 µL/min/mg | < 12 µL/min/mg | 5.70 to 6.30
CC(C)(c1ccc(OCCCl)c(C#N)c1)c1ccc(OCc2ocnc2S(C)(=O)=O)c(C#N)c1 [Compound A63, 2-(2-chloroethoxy)-5-(2-(3-cyano-4-((4-(methylsulfonyl)oxazol-5-yl)methoxy)phenyl)propan-2-yl)benzonitrile] | 12 to 48 µL/min/mg |  | 5.70 to 6.30
COc1c(Cl)cc(C(C)(C)c2ccc(OCc3ocnc3S(C)(=O)=O)cc2)cc1Cl [Compound A56] | < 12 µL/min/mg |  | 5.70 to 6.30

Second part, the compound after the results:

microsomal CLint at 1 μM [1] | microsomal CLint at 1 μM [2] | pIC50 (androgen receptor (AR)) | SMILES
< 12 µL/min/mg | < 12 µL/min/mg |  | COc1c(Cl)cc(C(C)(C)c2ccc(OCc3coc(NS(C)(=O)=O)n3)cc2)cc1C#N [Compound A161]
< 12 µL/min/mg | < 12 µL/min/mg | 5.70 to 6.30 | Cn1c(COc2ccc(C(C)(C)c3cc(Cl)c(OCCCl)c(Cl)c3)cc2)cnc1S(C)(=O)=O [Compound A78]
< 12 µL/min/mg | 12 to 48 µL/min/mg | < 5.70 | CC(C)(c1cc(Cl)c(OCCCl)c(Cl)c1)c1ccc(N2C(=O)N(S(C)(=O)=O)C(C)(C)C2=O)c(C#N)c1 [Compound B10]
12 to 48 µL/min/mg | ≥ 48 µL/min/mg | 5.70 to 6.30 | CC(O)(c1ccc(OCc2ocnc2S(C)(=O)=O)cc1)c1cc(Cl)c(OCCCl)c(C#N)c1 (centres unmarked) [Compound A77]
12 to 48 µL/min/mg | 12 to 48 µL/min/mg | > 6.30 | Cc1cc(C(C)(C)c2ccc(CN3C(=O)N(S(C)(=O)=O)C(C)(C)C3=O)c(C(N)=O)c2)cc(Cl)c1OCCCl [Compound B9]
< 12 µL/min/mg | < 12 µL/min/mg | > 6.30 | CC(C)(c1ccc(OCc2coc(S(C)(=O)=O)n2)cc1)c1cc(Cl)c(OCCCl)c(Cl)c1 [Compound A68]
< 12 µL/min/mg | 12 to 48 µL/min/mg | 5.70 to 6.30 | CC(C)(c1ccc(OCc2nc(C#N)co2)cc1)c1cc(Cl)c(OCCCl)c(C#N)c1 [Compound A174]
< 12 µL/min/mg | < 12 µL/min/mg | 5.70 to 6.30 | CC(C)(c1ccc(NC(=O)c2ocnc2S(C)(=O)=O)cc1)c1cc(Cl)c(OCCCl)c(Cl)c1 [Compound A73]
< 12 µL/min/mg | < 12 µL/min/mg | 5.70 to 6.30 | CC(C)(c1ccc(CN2C(=O)N(S(C)(=O)=O)C(C)(C)C2=O)cc1)c1cc(Cl)c(OCCCl)c(Cl)c1 [Compound B3, 3-(4-(2-(3,5-Dichloro-4-(2-chloroethoxy)phenyl)propan-2-yl)benzyl)-5,5-dimethyl-1-(methylsulfonyl)imidazolidine-2,4-dione]
< 12 µL/min/mg | < 12 µL/min/mg | < 5.70 | CC(C)(c1ccc(N2C(=O)N(S(C)(=O)=O)C(C)(C)C2=O)cc1)c1cc(Cl)c(OCCCl)c(Cl)c1 [Compound B7]
≥ 48 µL/min/mg | ≥ 48 µL/min/mg | > 6.30 | CN1C(=O)N(Cc2ccc(C(C)(C)c3cc(Cl)c(OCCCl)c(Cl)c3)cc2)C(=O)C1(C)C [Compound B2, 3-(4-(2-(3,5-Dichloro-4-(2-chloroethoxy)phenyl)propan-2-yl)benzyl)-1,5,5-trimethylimidazolidine-2,4-dione]
< 12 µL/min/mg | < 12 µL/min/mg | 5.70 to 6.30 | CC(C)(c1ccc(C(=O)Nc2ccnc(NS(C)(=O)=O)n2)cc1)c1cc(Cl)c(OCCCl)c(Cl)c1 [Compound A189]
≥ 48 µL/min/mg |  | 5.70 to 6.30 | CN1C(=O)N(Cc2ccc(C(C)(C)c3cc(Cl)c(OCCCl)c(Cl)c3)cc2C#N)C(=O)C1(C)C [Compound B8]

— patent US11059795B2, “Androgen receptor modulators and methods for their use” (ESSA Pharma, Inc., priority 2018, dated 2021)
